Reference: publication PMC6325219, “Preclinical Characterization of NVR 3-778, a First-in-Class Capsid Assembly Modulator against Hepatitis B Virus” (Antimicrobial Agents and Chemotherapy, 2018)
Where two headings read alike, the source gives them in different places.

How the values were obtained:
[1] = tested on: β-actin mRNA; assay: Host β-actin mRNA in PHH during de novo infection study; type: cell-based, human; conditions: 11 days, highest concentration tested 30 μM
Experimental: Cryopreserved PHH (Life Technologies) were seeded at 40,000 cells/well 1 day before infection. The HBV inoculum, concentrated from the supernatants of HepG2.2.15 cells, was prepared at 200 genome equivalents/cell in PHH medium (DMEM containing 10% FBS and a supplement cocktail containing HEPES, L-proline, insulin epidermal growth factor, dexamethasone, and ascorbic acid-2-phosphate, as previously described) with 2% DMSO and 4% polyethylene glycol (PEG) 8000 (Sigma). Compounds were serially diluted in DMSO at 50-fold strength and added to PHH medium containing the HBV inoculum, prior to infecting the PHH. After overnight incubation, the infection mixtures were removed and the cells were replenished with PHH medium containing freshly diluted compounds. On day 5 and day 8 postinfection, the media containing the compounds were removed and the cells were replenished with PHH medium containing freshly diluted compounds. […] HBV DNA, HBsAg, and HBeAg were determined from the supernatants of infected PHH using bDNA assays (Affymetrix) and HBsAg or HBeAg chemiluminescence immunoassay kits (Autobio), as recommended by the manufacturers. Intracellular total HBV RNA mRNA and host mRNA levels were monitored by using the QuantiGene assays (Affymetrix) and probe sets that hybridized to the X region, which is common to all HBV transcripts, and the host β-actin mRNA, respectively.

[2] = tested on: HBV GT D; assay: Transient-transfection antiviral study in HepG2 cells, GT D; type: cell-based; conditions: Hepatitis B virus, HepG2, 72 h, read-out: EC50 (mean), HBV GT D
Experimental: (§1) Cells were cotransfected with the HBV plasmids (100 ng/well) and a Gaussia expression plasmid (10 ng/well) (Thermo Scientific) using the Lipofectamine LTX Plus transfection reagent (Life Technologies). Transfection mixtures were removed after overnight incubation, and cells were treated with serially diluted NVR 3-778 at a final dimethyl sulfoxide (DMSO) concentration of 0.5%. After 3 days of incubation with the compound, the supernatants were collected and secreted Gaussia luciferase was measured using a Gaussia Flash luciferase assay kit (Thermo Scientific). […] Samples were diluted into lysis buffer (Affymetrix) containing 2.5 µg proteinase K (Affymetrix) at 50°C for 40 min. Intracellular encapsidated HBV DNA was denatured for 30 min at 25°C in 0.2 M NaOH (Sigma) and incubated with HBV DNA probes designed to hybridize to the minus-strand HBV DNA (Affymetrix). The denatured DNA was subsequently detected using a QuantiGene assay kit, according to the branched DNA (bDNA) assay recommended by the manufacturer (Affymetrix).

[3] = tested on: HBV GT G; assay: Transient-transfection antiviral study in HepG2 cells, GT G; type: cell-based; conditions: Hepatitis B virus, HepG2, 72 h, read-out: EC50 (mean), HBV GT G
Experimental: as §1

[4] = 28-day twice-daily oral gavage pharmacokinetics in CD1 mice; type: in vivo; conditions: for Cmax / half-life / AUC(0-t) / Tmax: CD1, mouse, plasma, po; for AUC(0-t): after second daily dose, read-out: AUC0–12; for Tmax: relative to second daily dose
Experimental: Fed male and female CD1 mice (36/sex/group) were dosed twice a day (BID) by oral gavage with 50, 150, and 500 mg/kg of body weight/dose of NVR 3-778 for 28 days. At different time points after dosing, plasma was analyzed for NVR 3-778 concentration by liquid chromatography-tandem mass spectrometry (LC-MS/MS).
In vivo pharmacokinetics studies were performed at Covance Laboratories (Madison, Wisconsin), accredited by the Association for Assessment and Accreditation of Laboratory Animal Care (AAALAC). All procedures in the protocols were in compliance with applicable animal welfare acts and were approved by the local Institutional Animal Care and Use Committee (IACUC). For the 28-day study in mice, male and female mice were 6 to 7 weeks old at the initiation of dosing. Environmental conditions, diet, and water were typical for pharmacokinetic and tolerability studies. NVR 3-778 was dosed in a vehicle of 0.5% (wt/vol) hydroxypropyl methylcellulose (Methocel E50 premium)--1% (wt/vol) polysorbate 80 (Tween 80) in reverse osmosis water. Blood samples were collected at 0.25, 0.5, 1, 3, 6, and 12 h after dosing on day 1 and on day 28 of the study into potassium (K2) EDTA. Plasma was harvested and stored at −80°C.

[5] = tested on: HBV GT E; assay: Transient-transfection antiviral study in HepG2 cells, GT E; type: cell-based; conditions: Hepatitis B virus, HepG2, 72 h, read-out: EC50 (mean), HBV GT E
Experimental: as §1

[6] = Cell viability of HepG2.2.15 cells (ATP levels, CellTiter-Glo); type: cell-based; conditions: human, HepG2.2.15 cells, ATP levels, CellTiter-Glo
Experimental: In combination studies, cells were treated with compounds either alone or in combination after combining the compounds in a checkerboard format. In studies examining the effect of human serum, serially diluted NVR 3-778 was added into cell culture medium containing 0% to 40% human serum (BioreclamationIVT). Cells were incubated with the compounds for 3 days, after which the medium was removed, fresh medium containing the compounds was added to the cells, and the cells were incubated for another 3 days prior to harvesting of the supernatants or cells for antiviral assays. To quantify intracellular encapsidated rcDNA or encapsidated pgRNA, cells were first solubilized using lysis buffer containing 1% NP-40 and 10 mM CaCl2. The cytoplasmic fraction was then treated with S7 nuclease (6 units) to remove nonencapsidated nucleic acids, after which the S7 nuclease was inactivated by the addition of EDTA (0.5 M). […] The levels of HBV DNA were determined by a bDNA assay as described above (Affymetrix). Supernatants or cell lysates containing HBV RNA were treated with proteinase K (2.5 µg) at 50°C for 40 min, transferred to a capture plate containing HBV RNA probe sets, and hybridized overnight at 55°C. Captured HBV RNA was measured by the addition of a chemiluminescent substrate using a QuantiGene assay (Affymetrix). […] At day 6, the CellTiter-Glo reagent was added to the cells and viability was determined according to the manufacturer’s protocol (Promega). Luminescence signals were measured at 0.2 s using a Victor X4 multimode plate reader (PerkinElmer).

[7] = Hepatocyte stability, dog hepatocytes; type: in vitro ADME; conditions: 120 min incubation
Experimental: Following in vitro incubation for 120 min with human, mouse, or dog hepatocytes, >85% of the NVR 3-778 remained intact. […] The fewest number of metabolites was found following incubation with human hepatocytes, where 92% of the NVR 3-778 remained after a 120-min incubation.

[8] = tested on: HBV GT F; assay: Transient-transfection antiviral study in HepG2 cells, GT F; type: cell-based; conditions: Hepatitis B virus, HepG2, 72 h, read-out: EC50 (mean), HBV GT F
Experimental: as §1

[9] = female, 50 mg/kg, day 1, 50 mg/kg/dose BID oral gavage, F
[10] = female, 50 mg/kg, day 28, 50 mg/kg/dose BID oral gavage, F
[11] = female, 150 mg/kg, day 1, 150 mg/kg/dose BID oral gavage, F
[12] = female, 150 mg/kg, day 28, 150 mg/kg/dose BID oral gavage, F
[13] = female, 500 mg/kg, day 1, 500 mg/kg/dose BID oral gavage, F
[14] = female, 500 mg/kg, day 28, 500 mg/kg/dose BID oral gavage, F
[15] = male, 50 mg/kg, day 1, 50 mg/kg/dose BID oral gavage, M
[16] = male, 50 mg/kg, day 28, 50 mg/kg/dose BID oral gavage, M
[17] = male, 150 mg/kg, day 1, 150 mg/kg/dose BID oral gavage, M
[18] = male, 150 mg/kg, day 28, 150 mg/kg/dose BID oral gavage, M
[19] = male, 500 mg/kg, day 1, 500 mg/kg/dose BID oral gavage, M
[20] = male, 500 mg/kg, day 28, 500 mg/kg/dose BID oral gavage, M

Nc1ccn([C@@H]2CS[C@H](CO)O2)c(=O)n1 [LMV, lamivudine, reference compound]
CC50 (EC50), β-actin mRNA [1]: >30000 nM | CC90 (EC90 column), β-actin mRNA [1]: >30000 nM

O=C(Nc1cc(F)c(F)c(F)c1)c1ccc(F)c(S(=O)(=O)N2CCC(O)CC2)c1 [NVR 3-778]
EC50 [2]: 430 nM | EC50 [3]: 250 nM | Gender differences in NVR 3-778 exposure ([4]; CD1 mice, Cmax and AUC): less than 2 fold | Cmax ([4]; both sexes, 500 mg/kg, 28-day study, dosed orally at 500 mg/kg BID, 100 µM = 43.2 µg/ml, read-out: Mean Cmax (serum/plasma level reached in mice)): > 100 µM | half-life [4, 9]: 2.2 h | AUC(0-t) [4, 9]: 60.1 µg·h/mL | Cmax ([4]; female, 50 mg/kg, day 1, 50 mg/kg/dose BID oral gavage, F, read-out: Cmax): 11700 ng/mL | Tmax [4, 9]: 0.5 h | AUC(0-t) [4, 10]: 78.8 µg·h/mL | Cmax ([4]; female, 50 mg/kg, day 28, 50 mg/kg/dose BID oral gavage, F, read-out: Cmax): 11500 ng/mL | Tmax [4, 10]: 3 h | half-life [4, 11]: 4.35 h | AUC(0-t) [4, 11]: 131 µg·h/mL | Cmax ([4]; female, 150 mg/kg, day 1, 150 mg/kg/dose BID oral gavage, F, read-out: Cmax): 22000 ng/mL | Tmax [4, 11]: 0.5 h | half-life [4, 12]: 2.48 h | AUC(0-t) [4, 12]: 171 µg·h/mL | Cmax ([4]; female, 150 mg/kg, day 28, 150 mg/kg/dose BID oral gavage, F, read-out: Cmax): 26600 ng/mL | Tmax [4, 12]: 1 h | AUC(0-t) [4, 13]: 315 µg·h/mL | Cmax ([4]; female, 500 mg/kg, day 1, 500 mg/kg/dose BID oral gavage, F, read-out: Cmax): 41400 ng/mL | Tmax [4, 13]: 0.5 h | AUC(0-t) [4, 14]: 354 µg·h/mL | Cmax ([4]; female, 500 mg/kg, day 28, 500 mg/kg/dose BID oral gavage, F, read-out: Cmax): 40800 ng/mL | Tmax [4, 14]: 3 h | AUC(0-t) [4, 15]: 70.4 µg·h/mL | Cmax ([4]; male, 50 mg/kg, day 1, 50 mg/kg/dose BID oral gavage, M, read-out: Cmax): 12700 ng/mL | Tmax [4, 15]: 1 h | AUC(0-t) [4, 16]: 87.3 µg·h/mL | Cmax ([4]; male, 50 mg/kg, day 28, 50 mg/kg/dose BID oral gavage, M, read-out: Cmax): 11900 ng/mL | Tmax [4, 16]: 3 h | half-life [4, 17]: 5 h | AUC(0-t) [4, 17]: 166 µg·h/mL | Cmax ([4]; male, 150 mg/kg, day 1, 150 mg/kg/dose BID oral gavage, M, read-out: Cmax): 25300 ng/mL | Tmax [4, 17]: 1 h | AUC(0-t) [4, 18]: 157 µg·h/mL | Cmax ([4]; male, 150 mg/kg, day 28, 150 mg/kg/dose BID oral gavage, M, read-out: Cmax): 24200 ng/mL | Tmax [4, 18]: 1 h | AUC(0-t) [4, 19]: 406 µg·h/mL | Cmax ([4]; male, 500 mg/kg, day 1, 500 mg/kg/dose BID oral gavage, M, read-out: Cmax): 43000 ng/mL | Tmax [4, 19]: 1 h | half-life [4, 20]: 3.15 h | AUC(0-t) [4, 20]: 375 µg·h/mL | Cmax ([4]; male, 500 mg/kg, day 28, 500 mg/kg/dose BID oral gavage, M, read-out: Cmax): 43800 ng/mL | Tmax [4, 20]: 3 h | Circulating species in plasma ([4]; mice, oral gavage): predominant circulating molecule | EC50 [5]: 580 nM | CC50 at 6 days [6]: 14500 nM | NVR 3-778 remaining intact [7]: > 85% | EC50 [8]: 560 nM
